Test results published in patent US20120015998A1 (priority 2010, published 2012).

What was measured:
[1] = tested on: presumed ocular histoplasmosis; set-up: species or system person; details: in vivo, iv
pathological myopia = assay: Verteporphin phototherapy of pathological myopia, retina illuminated with red OLED (Device A); details: about 6 mg/m^2 i.v. over about 10 minutes; retina illuminated about 15 minutes after start of infusion with red OLED Device A
[2] = tested on: age-related macular degeneration; assay: Verteporphin phototherapy of age-related macular degeneration, retina illuminated with red OLED (Device A); details: about 6 mg/m^2 i.v. over about 10 minutes; retina illuminated about 15 minutes after start of infusion with red OLED Device A
[3] = tested on: actinic keratoses lesions; assay: Phototherapy of actinic keratoses lesions with topical photosensitizer prodrug and red light emitting OLED (Device A); assay type: in vivo, person; details: 20% topical solution on individual lesions; illuminated about 14-18 hours after application with red OLED Device A
Excerpt: 5-Aminolevulinic acid HCl (20% topical solution, available as LEVULAN® KERASTICK® from DUSA® Pharmaceuticals) is topically applied to individual lesions on a person suffering from actinic keratoses.
Methyl aminolevulinate (16.8% topical cream, available as METVIXIA® Cream from GALERMA LABORATORIES, Fort Worth, Tex., USA) is topically applied to individual lesions on a person suffering from actinic keratoses.

Which “patient's vision after treatment” value [1] does the source give for `C=Cc1c(C)c2cc3nc(cc4[nH]c(cc5nc(cc1[nH]2)C(C)=C5CCC(=O)O)c(CCC(=O)OC)c4C)[C@@]1(C)C3=CC=C(C(=O)OC)[C@H]1C(=O)OC` [Verteporphin] here?
The value was “anticipated to be stabilized”.

And the “patient's vision after treatment” value (pathological myopia)?
The value was “anticipated to be stabilized”.

And the “patient's vision after treatment” value [2]?
The value was “anticipated to be stabilized”.

Which “number or severity of the lesions after the treatment” value [3] does the source give for `Cl.NCC(=O)CCC(=O)O` [5-Aminolevulinic acid HCl] here?
Its value is “anticipated to be reduced”.
